In patent US8481576B2 (Abbott GmbH & Co. KG, priority 2004, dated 2013) one finds Ki data, which are given here for 20 compounds.

Structures can show the parent of a compound that is named as a salt.

T1 sequence (P47898 whole entry): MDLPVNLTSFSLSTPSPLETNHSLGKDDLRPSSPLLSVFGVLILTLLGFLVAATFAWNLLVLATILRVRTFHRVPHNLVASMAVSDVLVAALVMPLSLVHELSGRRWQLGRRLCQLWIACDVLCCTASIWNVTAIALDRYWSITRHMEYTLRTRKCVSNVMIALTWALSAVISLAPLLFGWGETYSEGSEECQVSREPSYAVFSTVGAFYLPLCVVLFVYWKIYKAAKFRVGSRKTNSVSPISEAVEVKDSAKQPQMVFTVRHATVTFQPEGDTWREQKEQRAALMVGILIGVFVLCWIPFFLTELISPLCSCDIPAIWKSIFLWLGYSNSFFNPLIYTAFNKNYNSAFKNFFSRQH

This assay addresses T1, h5-HT5A receptor (Homo sapiens, UniProt P47898).
T1 construct: expressed in transfected cells; host or cells: HEK293
The assay is described as follows: [3H]5-CT binding assay h5-HT5A. The note with it: membranes from HEK293 cells expressing h5-HT5A, 2.5 nM [3H]5-CT; read-out: Binding affinity 5-HT5A (Ki). As for the experimental part: 1. [^3H]5-CT binding assay h5-HT5A
Membranes from HEK293-cells, which permanently express the h5-HT5A receptor gene, were incubated in 100 mM Tris-HCl-buffer (pH 7.7), containing 1 mM EDTA in the presence of 2.5 nM [^3H]5-CT (600 μl total volume). The total binding is defined as the binding which is observed when the membranes are incubated alone in the presence of the radioligand. The inhibition induced by the compound is determined by incubation of cell membranes in the presence of the radioligand, and of different concentrations of the compound of interest. Unspecific binding is defined by the binding of [^3H]5-CT, which is obtained by incubation of the membranes as for the total binding but in the presence of 10 μM methiothepine. Following an incubation of 75 minutes at 30° C. the membrane suspension is filtered through GF/B-filters, wrapped in 0.03% PEI, wherein a Skatron® harvest system is used. The radioactivity retained in the filter is quantified by liquid scintillation counting.
In both assays, different concentrations of the test substances are used, and the Ki or the IC50 values are determined.
“2-(2-{[[(2,6-dimethoxybenzyl)amino](imino)methyl]amino}-1,3-thiazole-4-yl)-N-(2-methoxybenzyl)acetamide (2E)-But-2-endioate [Example 51]”: the inhibition constant Ki is less than 50 nM.

Take `COc1ccccc1CNC(=N)Nc1nccs1` [Example 1, N-(2-methoxybenzyl)-N′-1,3-thiazole-2-ylguanidine]: the Ki was less than 50 nM. Regarding `COc1cccc(OC)c1CNC(=N)Nc1nc(-c2ccccc2)cs1` [Example 2, N-(2,6-dimethoxybenzyl)-N′-(4-phenyl-1,3-thiazole-2-yl)guanidine], the Ki is less than 50 nM.

For `CCc1csc(NC(=N)NCc2c(OC)cccc2OC)n1` [Example 3, N-(2,6-dimethoxybenzyl)-N′-(4-ethyl-1,3-thiazole-2-yl)-guanidine], the Ki was less than 50 nM.

On to `Cc1ccc(C)c(CNC(=N)Nc2nccs2)c1` [Example 4, N-(2,5-dinnethylbenzyl)-N′-1,3-thiazole-2-ylguanidine hydrochloride], for which the Ki is 50 to 500 nM.

On to `COc1cccc(OC)c1CNC(=N)Nc1nccs1` [Example 5, N-(2,6-dimethoxybenzyl)-N′-1,3-thiazole-2-ylguanidine], for which the Ki was less than 50 nM. The figure for `COc1cccc(Cl)c1CNC(=N)Nc1nccs1` [Example 6, N-(2-chloro-6-methoxybenzyl)-N′-1,3-thiazole-2-ylguanidine hydrochloride] is less than 50 nM; for `N=C(NCc1ccccc1Cl)Nc1nccs1` [Example 7, N-(2-chlorobenzyl)-N′-1,3-thiazole-2-ylguanidine hydrochloride] it is more than 500 nM. The figure for `CCOc1ccccc1CNC(=N)Nc1nccs1` [Example 8, N-(2-ethoxybenzyl)-N′-1,3-thiazole-2-ylguanidine hydrochloride] is less than 50 nM; for `COc1cccc(F)c1CNC(=N)Nc1nccs1` [Example 9, N-(2-fluoro-6-methoxybenzyl)-N′-1,3-thiazole-2-ylguanidine] it is less than 50 nM; for `Cc1ccccc1CNC(=N)Nc1nccs1` [Example 12, N-(2-methylbenzyl)-N′-1,3-thiazole-2-ylguandine] it is more than 500 nM. As for `N=C(NCc1cccc(Cl)c1)Nc1nccs1` [Example 13, N-(3-chlorobenzyl)-N′-1,3-thiazole-2-ylguanidine hydrochloride], the figure is more than 500 nM; as for `COc1cccc(CNC(=N)Nc2nccs2)c1` [Example 14, N-(3-methoxybenzyl)-N′-1,3-thiazole-2-ylguanidine hydrochloride], 50 to 500 nM; as for `COc1ccc(CNC(=N)Nc2nccs2)cc1` [Example 15, N-(4-methoxybenzyl)-N′-1,3-thiazole-2-ylguanidine], more than 500 nM.

Take `COc1ccccc1CCNC(=N)Nc1nccs1` [Example 16, N-[2-(2-methoxyphenyl)ethyl]-N′-1,3-thiazole-2-ylguanidine hydrochloride]: the Ki was more than 500 nM. Turning to `N=C(NCc1ccccc1OCc1ccccc1)Nc1nccs1` [Example 17, N-[2-(benzyloxy)benzyl]-N′-1,3-thiazole-2-ylguanidine], the Ki is 50 to 500 nM. The figure for `N=C(NCc1ccccc1C(F)(F)F)Nc1nccs1` [Example 18, N-1,3-thiazole-2-yl-N′[2-(trifluoromethyl)benzyl]guanidine] is more than 500 nM. The figure for `COc1cccc(OC)c1CNC(=N)Nc1nc(-c2cc(C(F)(F)F)cc(C(F)(F)F)c2)cs1` [Example 19, N-{4-[3,5-bis(trifluoromethyl)phenyl]-1,3-thiazole-2-yl}-N′-(2,6-dimethoxybenzyl)guanidine hydrobromide] is 50 to 500 nM; for `COc1ccccc1C(=O)NC(=N)Nc1nccs1` [Example 20, N-[Imino(1,3-thiazole-2-ylamino)methyl]-2-methoxybenzamide] it is more than 500 nM; for `COc1cccc(OC)c1CNC(=N)Nc1nc(-c2cc(Cl)ccc2Cl)cs1` [Example 21, N-[4-(2,5-dichlorophenyl)-1,3-thiazole-2-yl]-N′-(2,6-dimethoxybenzyl)guanidine hydrobromide] it is less than 50 nM.

The term Ki denotes the equilibrium dissociation constant of an inhibitor or competing ligand from its target.
